Values after ≈ are worked out from the molar mass of the structure shown. Like-named read-outs stand apart in the source and are kept apart here. Marks after values point to notes of the source that are not given here.
Legend:
M. phlei DSM750 = assay: MIC determination (microdilution, M07-A9); type: cell-based; conditions: Mycolicibacterium phlei
Experimental: (§1) MIC values were determined according to the ninth edition of the Approved Standard M07-A9. The test was carried out for six different bacterial strains (E. coli DSM 1116 (Gram-negative), E. coli BW25113 (Gram-negative), B. subtilis DSM 10 (Gram-positive), M. luteus DSM 1790 (Gram-positive), M. phlei DSM 750 (Gram-positive), S. typhimurium TA 100 (Gram-negative). First, 20 µl of glycerol stock of each strain was inoculated in 20 ml LB (Lennox) followed by incubation overnight at 37 °C, 200 r.p.m. The test inoculum was adjusted by the 0.5 McFarland Standard. Within 15 min of preparation, the adjusted inoculum suspension was diluted in MHBII so that each well contained approximately 5 × 10^5 c.f.u. ml^−1 in a final volume of 100 µl. Then, 95 µl of the inoculum was applied per well and 5 µl of the (diluted) albicidins was added. For dilutions, the dry powders were dissolved in dimethylsulfoxide (DMSO) with a concentration of 2.56 mg ml^−1, and the obtained stock solutions were further diluted in DMSO. Next, 5 µl of each antibiotic dilution was applied to the microdilution tray to reach final concentrations of 8 to 0.016 µg ml^−1. One row of each well plate served as a growth control without antibiotic and another row of the microdilution tray served as a sterility control (only MHBII media). The antimicrobial effect of the solvent was tested by adding 5 µl DMSO to several wells. Purity check and cell titre control were performed according to International Standard M07-A9 on Mueller–Hinton II Agar. Both microdilution trays and agar plates were incubated at 37 °C for 20 h.

B. subtilis DSM10 = assay: MIC determination (microdilution, M07-A9); type: cell-based; conditions: Bacillus subtilis
Experimental: as §1

S. typhimurium TA100 = assay: MIC determination (microdilution, M07-A9); type: cell-based
Experimental: as §1

E. coli BW25113 = assay: MIC determination (microdilution, M07-A9); type: cell-based; conditions: E. coli BW25113
Experimental: as §1

E. coli DSM116 = assay: MIC determination (microdilution, M07-A9); type: cell-based
Experimental: as §1

M. luteus DSM1790 = assay: MIC determination (microdilution, M07-A9); type: cell-based
Experimental: as §1

WT E. coli gyrase = target: T1, WT E. coli gyrase (Escherichia coli, UniProt P0AES4+P0AES6); assay: biochemical; type: biochemical; conditions: WT gyrase 20 nM; in words
T1 construct: alternative cryo-EM approach involving full-length E. coli gyrase; 10-His (cleaved yes); Twin-Strep (cleaved yes); made in house
Experimental: For DNA gyrase supercoiling assays to characterize gyrase mutants, 15 µl reactions were set up containing 250 ng of relaxed DNA, E. coli gyrase supercoiling buffer (35 mM Tris–Cl pH 7.5, 24 mM KCl, 4 mM MgCl2, 2 mM DTT, 1.8 mM spermidine, 1 mM ATP, 6.0% (w/v) glycerol, and 0.1 mg ml^−1 BSA), gyrase subunits and inhibitors. Concentrations of enzyme and inhibitor are stated in the figure legends. Inhibitors were diluted in the following way to reduce the chance of precipitation: stock compound in 100% DMSO was diluted to 5 mM in 100% DMSO. This compound solution was diluted to 1 mM by stepwise addition of 1 µl of 50% DMSO with thorough mixing via pipetting after each addition. All subsequent dilutions up to 100 µM were performed in the same way using H2O. After this point, compounds were stable and could be diluted in the normal way. Reactions were incubated at 37 °C for 30 min before stopping with 15 µl chloroform:isoamyl alcohol (24:1 v/v) and 15 µl of STEB (40% (w/v) sucrose, 100 mM Tris–Cl pH 8, 10 mM EDTA, 0.5 mg ml^−1 bromophenol blue).
Cleavage assays were set up in the same way as supercoiling assays with some modifications. The concentration of enzyme was increased 4-fold relative to the supercoiling assay and reactions were incubated for 1 h before addition of 0.2% SDS and proteinase K (0.2 mg ml^−1) and further incubation at 37 °C for 30 min to trap cleavage complexes. Reactions were stopped in the same way as supercoiling assays.
Results were visualized by agarose gel electrophoresis: 1% agarose Tris-acetate-EDTA (TAE) gels were run without ethidium bromide (supercoiling) or with 10 µg ml^−1 ethidium bromide (cleavage) at 8 V cm^−1.
DNA cleavage gels were analysed using densitometry (ImageJ). Experiments were carried out in triplicate and expressed as mean ± s.d. Curves were fitted using OriginPro 2021 (Origin Lab) according to a modified Hill equation:1 y=cI+(cF−cI)[…]/(k^n+x^n) where y is the percentage of cleaved DNA, cI is the initial cleavage, cF is the final cleavage, k is the CC50 (the concentration of inhibitor that results in cleavage of 50% of DNA), n is a slope factor and x is the inhibitor concentration.

[1] = test system: selected Gram-negative and Gram-positive microorganisms; assay: MIC activity groups over all tested strains; type: cell-based; design: key: a: most potent; b: intermediate; least active; conditions: MIC panel
Experimental: as §1

E. coli gyrase = target: T2, E. coli gyrase (Escherichia coli, UniProt P0AES4+P0AES6); assay: Gyrase cleavage of linear DNA fragments (Mu217 and others); type: biochemical; conditions: in words
T2 construct: alternative cryo-EM approach involving full-length E. coli gyrase; 10-His (cleaved yes); Twin-Strep (cleaved yes); made in house
Experimental: Mu217 DNA (25 nM) was incubated with 0.4 µM gyrase and indicated concentrations (1 or 10 µM) of diazirine-labelled albicidin (photo-Albi, φAlbi) in a volume of 20 µl (~70 ng DNA) at 37 °C for 30 min in gyrase cleavage buffer (see section 'Topoisomerase assays'). For CFX competition experiments, 30 µM CFX was added first, followed by the albicidin. Reactions were either irradiated with ultraviolet 365 nm (benchtop transilluminator) with cooling (ice) for 30 min or left on ice for 30 min (‘dark’). Then, 0.2% SDS and 0.2 mg ml^−1 proteinase K were added to both samples, which were incubated for another 30 min. Reactions were mixed with loading dye (STEB) and chloroform:isoamyl alcohol (24:1 v/v) before vortexing and centrifugation. The aqueous phase was loaded on 4–20% TBE (Tris–borate–EDTA) polyacrylamide gel (Thermo) and ran for 1 h at 150 V. DNA was visualized with SYBR Gold (Thermo) staining.
Extended Data Fig. 1 Length dependency of albicidin-mediated DNA cleavage. Position of cleaved DNA indicated by arrows and red dots. ATP and ADPNP were added as indicated, (----) stands for no nucleotide added. 20 nM gyrase, 1 µM albicidin and 25 nM DNA was used in each reaction.
Extended Data Fig. 5 Photocrosslinking of diazirine-labelled albicidin (photo-Albi) to the DNA. a. Structures of N-terminal photo-Albi and control compound. b. DNA cleavage assay with Mu217 fragment and indicated concentrations of compounds. The labelled DNA band appearing upon irradiation of a photo-compound when bound to the complex is marked by a yellow star. c. Ciprofloxacin competition experiment. Pre-incubation with excess CFX prevents albicidin binding and crosslinking. Details of the experiment are available in Methods section.

[2] = first value in cell (biological replicate)
[3] = second value in cell (biological replicate)
[4] = Salmonella enterica, first value in cell (biological replicate), read-out: MIC
[5] = Escherichia coli, first value in cell (biological replicate), read-out: MIC
[6] = E. coli DSM116, second value in cell (biological replicate)
[7] = Escherichia coli, E. coli DSM116, first value in cell (biological replicate), read-out: MIC
[8] = Micrococcus luteus, first value in cell (biological replicate), read-out: MIC

T2 sequence (P0AES4 whole entry, the tested form may be a part, one chain of several): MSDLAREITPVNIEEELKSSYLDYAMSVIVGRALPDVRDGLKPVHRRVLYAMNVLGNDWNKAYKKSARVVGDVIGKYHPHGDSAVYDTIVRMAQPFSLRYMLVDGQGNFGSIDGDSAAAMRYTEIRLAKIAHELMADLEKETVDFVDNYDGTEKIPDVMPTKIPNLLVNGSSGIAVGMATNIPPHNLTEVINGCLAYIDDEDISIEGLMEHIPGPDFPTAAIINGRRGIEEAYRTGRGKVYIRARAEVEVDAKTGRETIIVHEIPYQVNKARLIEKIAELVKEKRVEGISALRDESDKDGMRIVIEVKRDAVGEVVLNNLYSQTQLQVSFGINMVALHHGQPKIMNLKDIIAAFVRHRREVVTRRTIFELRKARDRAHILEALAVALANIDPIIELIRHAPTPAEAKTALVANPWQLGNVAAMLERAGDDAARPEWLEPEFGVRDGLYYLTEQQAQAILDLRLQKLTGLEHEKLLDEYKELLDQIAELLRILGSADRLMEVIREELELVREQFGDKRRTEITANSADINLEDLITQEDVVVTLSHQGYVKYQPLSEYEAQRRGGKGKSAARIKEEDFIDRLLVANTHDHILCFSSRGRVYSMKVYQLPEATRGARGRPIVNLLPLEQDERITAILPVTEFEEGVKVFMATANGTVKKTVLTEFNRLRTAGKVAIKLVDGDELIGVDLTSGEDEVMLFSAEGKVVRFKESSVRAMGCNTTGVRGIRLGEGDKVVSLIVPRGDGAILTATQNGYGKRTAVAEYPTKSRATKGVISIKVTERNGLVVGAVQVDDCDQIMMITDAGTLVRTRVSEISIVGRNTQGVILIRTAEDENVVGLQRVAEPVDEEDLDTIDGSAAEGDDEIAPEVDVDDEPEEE
T1 sequence (P0AES4 whole entry, one chain of several): as the sequence (P0AES4 whole entry, the tested form may be a part, one chain of several) above

Structure (SMILES) | MIC (M. phlei DSM750; [2]) [µg/mL] | MIC (M. phlei DSM750; [3]) [µg/mL] | MIC (B. subtilis DSM10; [2]) [µg/mL] | MIC (B. subtilis DSM10; [3]) [µg/mL] | MIC (S. typhimurium TA100; [4]) [µg/mL] | MIC (E. coli BW25113; [5]) [µg/mL] | MIC (E. coli DSM116; [6]) | MIC (E. coli DSM116; [7]) [µg/mL] | MIC (M. luteus DSM1790; [8]) [µg/mL] | MIC (M. luteus DSM1790; [3]) | activity in a DNA cleavage assay relative to albicidin (WT E. coli gyrase) | activity group (superscript letter) [1] | MIC (S. typhimurium TA100; [3]) | MIC (E. coli BW25113; [3]) | MIC (E. coli DSM116; Escherichia coli, DSM116, E. coli DSM116, first value in cell (biological replicate), read-out: MIC) [µg/mL] | MIC (E. coli DSM116; Escherichia coli, DSM116, E. coli DSM116, second value in cell (biological replicate), read-out: MIC) [µg/mL] | activity against gyrase (E. coli gyrase)
COc1c(NC(=O)c2ccc(NC(=O)c3ccc(NC(=O)[C@H](Cc4c[nH]nn4)NC(=O)c4ccc(C#Cc5ccc(C#N)cc5)cc4)cn3)c(OC)c2O)ccc(C(=O)O)c1O [Alkyne–Albi] | 0.25 (≈ 0.299 µM) | 0.5 (≈ 0.598 µM) | 0.063 (≈ 0.0754 µM) | 0.125 (≈ 0.15 µM) | < 0.016 | < 0.016 | <0.016 <0.016 µg ml^−1 | < 0.016 | < 0.016 | <0.016 <0.016 µg ml^−1 | as active as albicidin | Alkyne–Albi^a |  |  |  |  | 
COc1ccccc1NC(=O)c1ccc(NC(=O)[C@H](Cc2c[nH]nn2)NC(=O)c2ccc(NC(=O)/C(C)=C/c3ccc(O)cc3)cc2)cn1 [AE-3] | > 8 | > 8 | > 8 | > 8 | > 8 | > 8 | >8.0 >8.0 µg ml^−1 | > 8 | > 8 | >8.0 >8.0 µg ml^−1 |  | AE-3^c |  |  |  |  | 
CC(C)Oc1ccccc1NC(=O)c1ccc(NC(=O)[C@H](Cc2c[nH]nn2)NC(=O)c2ccc(NC(=O)c3ccc(C#N)cc3)cn2)cn1 [AE-4] | > 8 | > 8 | > 8 | > 8 | > 8 | > 8 | >8.0 >8.0 µg ml^−1 | > 8 | > 8 | >8.0 >8.0 µg ml^−1 |  | AE-4^c |  |  |  |  | 
COc1c(NC(=O)c2ccc(NC(=O)[C@H](Cc3c[nH]nn3)NC(=O)c3ccc(NC(=O)c4ccc(C#N)cc4)cc3)cn2)ccc(F)c1F [AE-5] | > 8 | > 8 | > 8 | > 8 | > 8 | > 8 | >8.0 >8.0 µg ml^−1 | > 8 | > 8 | >8.0 >8.0 µg ml^−1 |  | AE-5^c |  |  |  |  | 
COc1c(NC(=O)c2ccc(NC(=O)c3ccc(NC(=O)[C@H](Cc4c[nH]nn4)NC(=O)c4ccc(NC(=O)/C(C)=C/c5ccc(O)cc5)cc4)cn3)c(OC)c2O)ccc(C(=O)O)c1O [Azahis–Albi] | 0.125 (≈ 0.141 µM) | 0.5 (≈ 0.564 µM) | 0.031 (≈ 0.035 µM) | 0.063 (≈ 0.0711 µM) | < 0.016 | < 0.016 |  |  | 0.031 (≈ 0.035 µM) |  |  |  | <0.016 <0.016 µg ml^−1 | <0.016 <0.016 µg ml^−1 | < 0.016 | < 0.016 | 
COc1ccccc1NC(=O)c1ccc(NC(=O)[C@H](Cc2c[nH]nn2)NC(=O)c2ccc(NC(=O)c3ccc(C#N)cc3)cn2)cn1 [AE-1] | > 8 | > 8 | > 8 | > 8 | > 8 | > 8 | >8.0 >8.0 µg ml^−1 | > 8 | > 8 | >8.0 >8.0 µg ml^−1 |  | AE-1^c |  |  |  |  | 
COc1ccccc1NC(=O)c1ccc(NC(=O)[C@H](Cc2c[nH]nn2)NC(=O)c2ccc(NC(=O)c3ccc(C#N)cc3)cc2)cn1 [AE-2] | > 8 | > 8 | > 8 | > 8 | > 8 | > 8 | >8.0 >8.0 µg ml^−1 | > 8 | > 8 | >8.0 >8.0 µg ml^−1 |  | AE-2^c |  |  |  |  | 
C#CC[C@H](NC(=O)c1ccc(NC(=O)c2ccc(C3(C(F)(F)F)N=N3)cc2)cc1)C(=O)Nc1ccc(C(=O)Nc2ccc(C(=O)Nc3ccc(C(=O)O)c(O)c3OC)c(O)c2OC)nc1 [photo-Albi] |  |  |  |  |  |  |  |  |  |  |  |  |  |  |  |  | active against gyrase

Reference: paper PMC9886550, “Molecular mechanism of topoisomerase poisoning by the peptide antibiotic albicidin” (Nature Catalysis, 2023)
